Patent publication EP4714953A1, “MELANOCORTIN 2-TYPE RECEPTOR ANTAGONIST” (Scohia Pharma, Inc., priority 2023, dated 2024)

The compounds below were run against T1, human MC2R (Homo sapiens, UniProt Q01718) (assay: Measurement of human MC2R inhibitory activity using intracellular cAMP concentration as an indicator). Conditions: test compound at 1 µM; GeneBLAzer MC2R-CRE-bla CHO-K1 cells; ACTH (Human 1-24) final concentration 3 pM; intracellular cAMP by HTRF; read-out: MC2R inhibition rate (% of inhibition).
T1 construct: host or cells: GeneBLAzer MC2R-CRE-bla CHO-K1 cells
T1 sequence (Q01718 whole entry): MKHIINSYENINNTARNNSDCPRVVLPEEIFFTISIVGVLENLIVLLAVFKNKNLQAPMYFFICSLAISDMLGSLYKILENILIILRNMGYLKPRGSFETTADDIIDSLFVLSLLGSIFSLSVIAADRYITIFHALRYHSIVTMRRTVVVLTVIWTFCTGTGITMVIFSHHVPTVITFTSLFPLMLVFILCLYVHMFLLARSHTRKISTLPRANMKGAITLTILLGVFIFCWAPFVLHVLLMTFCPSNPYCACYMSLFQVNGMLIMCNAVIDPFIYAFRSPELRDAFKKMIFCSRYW
T1 sequence (Q8TCY5 whole entry partner): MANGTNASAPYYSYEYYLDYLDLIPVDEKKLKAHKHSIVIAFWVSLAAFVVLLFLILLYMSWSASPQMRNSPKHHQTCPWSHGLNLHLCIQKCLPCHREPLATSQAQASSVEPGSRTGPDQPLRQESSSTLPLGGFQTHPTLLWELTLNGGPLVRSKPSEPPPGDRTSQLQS
Assay type: cell-based
Experimental: Experimental Example 1: Measurement of human MC2R inhibitory activity using intracellular cAMP concentration as an indicator
GeneBLAzer MC2R-CRE-bla CHO-K1 cells (Thermo Fisher Scientific) that had been cryopreserved in advance were thawed and suspended in a medium [Dulbecco's Modified Eagle Medium (Thermo Fisher Scientific) containing fetal bovine serum (10% (v/v), HyClone Laboratories), Non-Essential Amino Acids Solution (1/100 (w/w), Thermo Fisher Scientific), HEPES (25 mM, Thermo Fisher Scientific), Penicillin/Streptomycin (1/100 (w/w), Fujifilm Wako)]. After centrifuging the cell suspension, the supernatant was removed, the cells were suspended in D-PBS(-) (Fujifilm Wako), and the supernatant was removed again after centrifugation. The cells were resuspended in an assay buffer [Hank's Balanced Salt Solution (Thermo Fisher Scientific) containing HEPES pH 7.5 (10 mM, Thermo Fisher Scientific), fatty acid-free bovine serum albumin (0.01% (w/v), Sigma), IBMX (500 µM, Fujifilm Wako)] and added to a 384-well white plate (Greiner) at 1,500 cells/well. Then, the test compound prepared using the assay buffer was added, and after standing for 20 min, an assay buffer containing ACTH (Human 1-24) (Peptide Institute) was added (ACTH final concentration, 3 pM). After standing at room temperature for 30 min, the intracellular cAMP level was measured using cAMP Gs HiRange kit HTRF (PerkinElmer). The inhibition rate (%) of the compound against MC2R was calculated using the following formula. Inhibition rate (%) = […] [formula] • A: cAMP concentration calculated from wells containing 3 pM ACTH (1-24) • B: cAMP concentration calculated from wells without addition of 3 pM ACTH (1-24) • C: cAMP concentration calculated from wells containing 3 pM ACTH (1-24) and test compound at concentration determined in advance

Row | SMILES | inhibition at 1 µM
1 | CCOc1ncccc1-c1ccc(N2CCN3C(=O)N(c4ccc(Cl)cc4C(F)(F)F)CC3C2)c(C=O)n1 (centres unmarked) [Example 1, 3-[2-[4-chloro-2-(trifluoromethyl)phenyl]-3-oxo-5,6,8,8a-tetrahydro-1H-imidazo[1,5-a]pyrazin-7-yl]-6-(2-ethoxypyridin-3-yl)pyridine-2-carbaldehyde] | 100%
2 | CCOc1ncccc1-c1ccc(N2CCN3C(=O)N(C4(C(F)(F)F)CCCC4)CC3C2)c(C(N)=O)n1 (centres unmarked) [Example 3, 6-(2-ethoxypyridin-3-yl)-3-[3-oxo-2-[1-(trifluoromethyl)cyclopentyl]-5,6,8,8a-tetrahydro-1H-imidazo[1,5-a]pyrazin-7-yl]pyridine-2-carboxamide] | 81%
3 | CCOc1ncccc1-c1ccc(N2CCN3C(=O)N(c4ccc(Cl)cc4C(F)(F)F)C[C@@H]3C2)c(C=O)n1 [Example 5, 3-[(8aS)-2-[4-chloro-2-(trifluoromethyl)phenyl]-3-oxo-5,6,8,8a-tetrahydro-1H-imidazo[1,5-a]pyrazin-7-yl]-6-(2-ethoxypyridin-3-yl)pyridine-2-carbaldehyde] | 100%
4 | CCOc1ncccc1-c1ccc(N2CCN3C(=O)N(c4ccc(Cl)cc4C(F)(F)F)C[C@H]3C2)c(C=O)n1 [Example 7, 3-[(8aR)-2-[4-chloro-2-(trifluoromethyl)phenyl]-3-oxo-5,6,8,8a-tetrahydro-1H-imidazo[1,5-a]pyrazin-7-yl]-6-(2-ethoxypyridin-3-yl)pyridine-2-carbaldehyde] | 91%
5 | CCOc1ncccc1-c1ccc(N2CCN3C(=O)N(c4ccc(Cl)cc4C(F)(F)F)CC3(C)C2)c(C=O)n1 (centres unmarked) [Example 9, 3-[2-[4-chloro-2-(trifluoromethyl)phenyl]-8a-methyl-3-oxo-1,5,6,8-tetrahydroimidazo[1,5-a]pyrazin-7-yl]-6-(2-ethoxypyridin-3-yl)pyridine-2-carbaldehyde] | 99%
6 | CCOc1ncccc1-c1ccc(N2C[C@H]3CN(c4ccc(Cl)cc4C(F)(F)F)C(=O)N3C[C@H]2CC)c(C=O)n1 [Example 10, 3-[(6R,8aS)-2-[4-chloro-2-(trifluoromethyl)phenyl]-6-ethyl-3-oxo-5,6,8,8a-tetrahydro-1H-imidazo[1,5-a]pyrazin-7-yl]-6-(2-ethoxypyridin-3-yl)pyridine-2-carbaldehyde] | 100%
7 | CCOc1ncccc1-c1ccc(N2CCN3C(=O)N(c4ccc(Cl)cc4C(F)(F)F)C[C@@H]3C2)c(C(=O)NCC2CCOCC2)n1 [Example 11, 3-[(8aS)-2-[4-chloro-2-(trifluoromethyl)phenyl]-3-oxo-5,6,8,8a-tetrahydro-1H-imidazo[1,5-a]pyrazin-7-yl]-6-(2-ethoxypyridin-3-yl)-N-(oxan-4-ylmethyl)pyridine-2-carboxamide] | 97%
8 | CCOc1ncccc1-c1ccc(N2CCN3C(=O)N(c4ccc(Cl)cc4C(F)(F)F)C[C@@H]3C2)c(C(=O)NCCC2CCOCC2)n1 [Example 13, 3-[(8aS)-2-[4-chloro-2-(trifluoromethyl)phenyl]-3-oxo-5,6,8,8a-tetrahydro-1H-imidazo[1,5-a]pyrazin-7-yl]-6-(2-ethoxypyridin-3-yl)-N-[2-(oxan-4-yl)ethyl]pyridine-2-carboxamide] | 99%
9 | CCOc1ncccc1-c1ccc(N2CCN3C(=O)N(c4ccc(Cl)cc4C(F)(F)F)C[C@@H]3C2)c(C(=O)NCCCc2ccccn2)n1 [Example 14, 3-[(8aS)-2-[4-chloro-2-(trifluoromethyl)phenyl]-3-oxo-5,6,8,8a-tetrahydro-1H-imidazo[1,5-a]pyrazin-7-yl]-6-(2-ethoxypyridin-3-yl)-N-(3-pyridin-2-ylpropyl)pyridine-2-carboxamide] | 100%
10 | CCOc1ncccc1-c1ccc(N2CCN3C(=O)N(c4ccc(Cl)cc4C(F)(F)F)C[C@@H]3C2)c(C(=O)NCC2(O)COC2)n1 [Example 15, 3-[(8aS)-2-[4-chloro-2-(trifluoromethyl)phenyl]-3-oxo-5,6,8,8a-tetrahydro-1H-imidazo[1,5-a]pyrazin-7-yl]-6-(2-ethoxypyridin-3-yl)-N-[(3-hydroxyoxetan-3-yl)methyl]pyridine-2-carboxamide] | 100%
11 | CCOc1ncccc1-c1ccc(N2CCN3C(=O)N(c4ccc(Cl)cc4C(F)(F)F)C[C@@H]3C2)c(C(=O)NCC2(O)CC2)n1 [Example 16, 3-[(8aS)-2-[4-chloro-2-(trifluoromethyl)phenyl]-3-oxo-5,6,8,8a-tetrahydro-1H-imidazo[1,5-a]pyrazin-7-yl]-6-(2-ethoxypyridin-3-yl)-N-[(1-hydroxycyclopropyl)methyl]pyridine-2-carboxamide] | 100%
12 | CCOc1ncccc1-c1ccc(N2CCN3C(=O)N(c4ccc(Cl)cc4C(F)(F)F)C[C@@H]3C2)c(C(=O)NC2CCN(C(=O)OC(C)(C)C)C2)n1 (stereo partly drawn) [Example 17, tert-butyl 3-[[3-[(8aS)-2-[4-chloro-2-(trifluoromethyl)phenyl]-3-oxo-5,6,8,8a-tetrahydro-1H-imidazo[1,5-a]pyrazin-7-yl]-6-(2-ethoxypyridin-3-yl)pyridine-2-carbonyl]amino]pyrrolidine-1-carboxylate] | 91%
13 | CCOc1ncccc1-c1ccc(N2CCN3C(=O)N(c4ccc(Cl)cc4C(F)(F)F)C[C@@H]3C2)c(C(=O)NCCc2ccccn2)n1 [Example 19, 3-[(8aS)-2-[4-chloro-2-(trifluoromethyl)phenyl]-3-oxo-5,6,8,8a-tetrahydro-1H-imidazo[1,5-a]pyrazin-7-yl]-6-(2-ethoxypyridin-3-yl)-N-(2-pyridin-2-ylethyl)pyridine-2-carboxamide] | 100%
14 | CCOc1ncccc1-c1ccc(N2CCN3C(=O)N(c4ccc(Cl)cc4C(F)(F)F)C[C@@H]3C2)c(C(=O)NC2CCOC2)n1 (stereo partly drawn) [Example 20, 3-[(8aS)-2-[4-chloro-2-(trifluoromethyl)phenyl]-3-oxo-5,6,8,8a-tetrahydro-1H-imidazo[1,5-a]pyrazin-7-yl]-6-(2-ethoxypyridin-3-yl)-N-(oxolan-3-yl)pyridine-2-carboxamide] | 99%

More lines, now with the values ahead:

Row | inhibition at 1 µM | SMILES
15 | 99% | CCOc1ncccc1-c1ccc(N2CCN3C(=O)N(c4ccc(Cl)cc4C(F)(F)F)CC3C2)c(C(N)=O)n1 (centres unmarked) [Example 2, 3-[2-[4-chloro-2-(trifluoromethyl)phenyl]-3-oxo-5,6,8,8a-tetrahydro-1H-imidazo[1,5-a]pyrazin-7-yl]-6-(2-ethoxypyridin-3-yl)pyridine-2-carboxamide]
16 | 100% | CCOc1ncccc1-c1ccc(N2CCN3C(=O)N(c4ccc(Cl)cc4C(F)(F)F)CC3C2)c(C(=O)NCCN(C)C)n1 (centres unmarked) [Example 4, 3-[2-[4-chloro-2-(trifluoromethyl)phenyl]-3-oxo-5,6,8,8a-tetrahydro-1H-imidazo[1,5-a]pyrazin-7-yl]-N-[2-(dimethylamino)ethyl]-6-(2-ethoxypyridin-3-yl)pyridine-2-carboxamide]
17 | 100% | CCOc1ncccc1-c1ccc(N2CCN3C(=O)N(c4ccc(Cl)cc4C(F)(F)F)C[C@@H]3C2)c(C(=O)NCCN(C)C)n1 [Example 6, 3-[(8aS)-2-[4-chloro-2-(trifluoromethyl)phenyl]-3-oxo-5,6,8,8a-tetrahydro-1H-imidazo[1,5-a]pyrazin-7-yl]-N-[2-(dimethylamino)ethyl]-6-(2-ethoxypyridin-3-yl)pyridine-2-carboxamide]
18 | 90% | CCOc1ncccc1-c1ccc(N2CCN3C(=O)N(c4ccc(Cl)cc4C(F)(F)F)C[C@H]3C2)c(C(=O)NCCN(C)C)n1 [Example 8, 3-[(8aR)-2-[4-chloro-2-(trifluoromethyl)phenyl]-3-oxo-5,6,8,8a-tetrahydro-1H-imidazo[1,5-a]pyrazin-7-yl]-N-[2-(dimethylamino)ethyl]-6-(2-ethoxypyridin-3-yl)pyridine-2-carboxamide]
19 | 100% | CCOc1ncccc1-c1ccc(N2CCN3C(=O)N(c4ccc(Cl)cc4C(F)(F)F)C[C@@H]3C2)c(C(=O)NCCOC)n1 [Example 12, 3-[(8aS)-2-[4-chloro-2-(trifluoromethyl)phenyl]-3-oxo-5,6,8,8a-tetrahydro-1H-imidazo[1,5-a]pyrazin-7-yl]-6-(2-ethoxypyridin-3-yl)-N-(2-methoxyethyl)pyridine-2-carboxamide]
20 | 100% | CCOc1ncccc1-c1ccc(N2CCN3C(=O)N(c4ccc(Cl)cc4C(F)(F)F)C[C@@H]3C2)c(C(=O)NCCS(C)(=O)=O)n1 [Example 18, 3-[(8aS)-2-[4-chloro-2-(trifluoromethyl)phenyl]-3-oxo-5,6,8,8a-tetrahydro-1H-imidazo[1,5-a]pyrazin-7-yl]-6-(2-ethoxypyridin-3-yl)-N-(2-methylsulfonylethyl)pyridine-2-carboxamide]
